Test: recombinant barcode read abundance after kanamycin selection (control-corrected) (log10(CPM+1)); higher = more efficient recombination; sequences stand for … in AGTGCAGAGAAAATCGGCCAGTTTTCTCTGCCTGCAGTCCGCATGCCGT…AGATTTATGCAGCGGACTGCCTTTCTCCCAAAGTGATAAACCGGACAGTATCATGGACCGGTTTTCCCGGTAATCCGTATTTGCAAGGTTGGTTTCACT; site = the 11-nt target
Procedure, shortened: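 Oligos holding a promoter, target, barcode and the J23119-driven first 104 bases of the bridge RNA were Gibson-cloned into a vector that supplied the other 73 bp plus a T7-inducible recombinase. This library was co-electroporated with a donor plasmid into E. coli. Two replicates went on chloramphenicol/ampicillin LB agar (control) and two on chloramphenicol/ampicillin/kanamycin with 0.1 mM IPTG. Recombination efficiency is read from averaged, control-corrected barcode counts per million at recombinant junctions, reported as log10(CPM+1).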
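Also: IS621 recombinase and bridge RNA in Escherichia coli cells.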

Row | Sequence | recombinant barcode read abundance (log10)
1 | TACGCTCCTTGGGTTCTAACCTGTTGCGT (site TACGCTCCTAA) | 0.0715
2 | TACGCTCCTTGGGTTCTAACCTGTTGCGT (site TACGCTCCTAC) | 0.108
3 | TACGCTCCTTGGGTTCTAACCTGTTGCGT (site TACGCTCCTAG) | 0.0936
4 | TACGCTCCTTGGGTTCTAACCTGTTGCGT (site TACGCTCCTAT) | 0.501
5 | TACGGTCCTTGGGTTCTAACCTGTTGCTT (site TACGGTCCTAA) | 1.08
6 | TACGGTCCTTGGGTTCTAACCTGTTGCTT (site TAGGCTCCTAA) | 0.261
7 | TACGTGGCTTGGGTTCTAACCTGTTGCCT (site TACGAGGCTAG) | 0.182
8 | TACGTGGCTTGGGTTCTAACCTGTTGCCT (site TACGCGGCTAG) | 0.0139
9 | TACGTGGCTTGGGTTCTAACCTGTTGCCT (site TACGGGGCTAG) | 0.502
10 | TACGTGGCTTGGGTTCTAACCTGTTGCCT (site TACGTGGCTAG) | 0.825
11 | TACGTGTCTTGGGTTCTAACCTGTTGCTA (site TACGTGTCTTA) | 2.19
12 | TACGTGTCTTGGGTTCTAACCTGTTGCTA (site TGCGTGTCTCA) | 0.051
13 | TACTAACCTTGGGTTCTAACCTGTTGCCT (site CATTAACCTAG) | 0.0235
14 | TACTAACCTTGGGTTCTAACCTGTTGCCT (site TACTAACCTAG) | 0.752
15 | TACTACCCTTGGGTTCTAACCTGTTGCCA (site TACTACCCTTG) | 0.606
16 | TACTACCCTTGGGTTCTAACCTGTTGCCA (site TAGTATCCTTG) | 0.0944
17 | TACTACCCTTGGGTTCTAACCTGTTGCCT (site TACTACCCTAG) | 1.46
18 | TACTACCCTTGGGTTCTAACCTGTTGCCT (site TCCTACCCTAG) | 0.126
19 | TACTACCCTTGGGTTCTAACCTGTTGCCT (site TGCTACCCTAG) | 0.0397
20 | TACTACCCTTGGGTTCTAACCTGTTGCCT (site TTCTACCCTAG) | 0.0291
21 | TACTGGGCTTGGGTTCTAACCTGTTGCGG (site TACTGGGCTCA) | 0.316
22 | TACTGGGCTTGGGTTCTAACCTGTTGCGG (site TACTGGGCTCC) | 2.2
23 | TACTTACCTTGGGTTCTAACCTGTTGCCT (site TACTTACCTAG) | 0.362
24 | TACTTACCTTGGGTTCTAACCTGTTGCCT (site TTCTTACCTAG) | 0.0922
25 | TACTTAGCTTGGGTTCTAACCTGTTGCCG (site TACTTAGCTCG) | 0.075
26 | TACTTAGCTTGGGTTCTAACCTGTTGCCG (site TAGTTACCTCG) | 0.0382

Row | Sequence | recombinant barcode read abundance (log10)
27 | TAGAACCCTTGGGTTCTAACCTGTTGCTT (site TAGAACCCTAA) | 0.367
28 | TAGAACCCTTGGGTTCTAACCTGTTGCTT (site TAGATCCCTAA) | 0.0967
29 | TAGAACTCTTGGGTTCTAACCTGTTGCCC (site TAGAACTCTAG) | 0.296
30 | TAGAACTCTTGGGTTCTAACCTGTTGCCC (site TAGAACTCTCG) | 0.0614
31 | TAGAACTCTTGGGTTCTAACCTGTTGCCC (site TAGAACTCTGG) | 0.427
32 | TAGAACTCTTGGGTTCTAACCTGTTGCCC (site TAGAACTCTTG) | 0.0327
33 | TAGAACTCTTGGGTTCTAACCTGTTGCGC (site ACATTTCCTAT) | 0.0572
34 | TAGAACTCTTGGGTTCTAACCTGTTGCGC (site TAGAACTCTGC) | 1
35 | TAGAAGCCTTGGGTTCTAACCTGTTGCCG (site TACAAGCCTAG) | 0.0659
36 | TAGAAGCCTTGGGTTCTAACCTGTTGCCG (site TAGAAGCCTCG) | 1.62
37 | TAGAAGGCTTGGGTTCTAACCTGTTGCGT (site TAGAAGGCTAA) | 0.445
38 | TAGAAGGCTTGGGTTCTAACCTGTTGCGT (site TAGAAGGCTAC) | 2.75
39 | TAGAAGGCTTGGGTTCTAACCTGTTGCGT (site TAGAAGGCTAG) | 0.273
40 | TAGAAGGCTTGGGTTCTAACCTGTTGCGT (site TAGAAGGCTAT) | 1.96
41 | TAGAATGCTTGGGTTCTAACCTGTTGCTT (site TAGAATGCTAA) | 0.285
42 | TAGAATGCTTGGGTTCTAACCTGTTGCTT (site TAGAATGCTAG) | 0.148
43 | TAGACATCTTGGGTTCTAACCTGTTGCAT (site AAGACATCTAA) | 0.133
44 | TAGACATCTTGGGTTCTAACCTGTTGCAT (site TAGACATCTAT) | 0.353
45 | TAGACCACTTGGGTTCTAACCTGTTGCAC (site CTATATGCTAA) | 0.0777
46 | TAGACCACTTGGGTTCTAACCTGTTGCAC (site TAGACCACTGT) | 0.954
47 | TAGAGAGCTTGGGTTCTAACCTGTTGCGG (site TAAAGAGCTCC) | 1.57
48 | TAGAGAGCTTGGGTTCTAACCTGTTGCGG (site TACAGAGCTCC) | 0.202
49 | TAGAGAGCTTGGGTTCTAACCTGTTGCGG (site TAGAGAGCTCC) | 2.09
50 | TAGAGAGCTTGGGTTCTAACCTGTTGCGG (site TATAGAGCTCC) | 0.356
51 | TAGAGCTCTTGGGTTCTAACCTGTTGCTG (site TAGAGCTCTCA) | 0.75
52 | TAGAGCTCTTGGGTTCTAACCTGTTGCTG (site TAGTGCTCTGA) | 0.0075

Row | Sequence | recombinant barcode read abundance (log10)
53 | TAGATAACTTGGGTTCTAACCTGTTGCTG (site ACCCATTCTAC) | 0
54 | TAGATAACTTGGGTTCTAACCTGTTGCTG (site TAGATAACTCA) | 1.02
55 | TAGCACTCTTGGGTTCTAACCTGTTGCAG (site AAGCACCCTCT) | 0.0429
56 | TAGCACTCTTGGGTTCTAACCTGTTGCAG (site TAGCACTCTCT) | 2.08
57 | TAGCATACTTGGGTTCTAACCTGTTGCCC (site TAGCATACTAG) | 0.329
58 | TAGCATACTTGGGTTCTAACCTGTTGCCC (site TAGCATACTCG) | 0.266
59 | TAGCATACTTGGGTTCTAACCTGTTGCCC (site TAGCATACTGG) | 0.941
60 | TAGCATACTTGGGTTCTAACCTGTTGCCC (site TAGCATACTTG) | 0.187
61 | TAGCATGCTTGGGTTCTAACCTGTTGCAG (site TAGCATGCTAT) | 0.0261
62 | TAGCATGCTTGGGTTCTAACCTGTTGCAG (site TAGCATGCTCT) | 1.44
63 | TAGCATGCTTGGGTTCTAACCTGTTGCAG (site TAGCATGCTGT) | 0.0603
64 | TAGCATGCTTGGGTTCTAACCTGTTGCAG (site TAGCATGCTTT) | 0.017
65 | TAGCATGCTTGGGTTCTAACCTGTTGCAT (site TAGCATGCTAT) | 0.434
66 | TAGCATGCTTGGGTTCTAACCTGTTGCAT (site TAGCATGCTCT) | 0.204
67 | TAGCATGCTTGGGTTCTAACCTGTTGCAT (site TAGCATGCTGT) | 0.228
68 | TAGCATGCTTGGGTTCTAACCTGTTGCAT (site TAGCATGCTTT) | 0.065
69 | TAGCCATCTTGGGTTCTAACCTGTTGCTC (site TAGACATCTGA) | 0.0329
70 | TAGCCATCTTGGGTTCTAACCTGTTGCTC (site TAGCCATCTGA) | 0.508
71 | TAGCCATCTTGGGTTCTAACCTGTTGCTC (site TAGGCATCTGA) | 0.404
72 | TAGCCATCTTGGGTTCTAACCTGTTGCTC (site TAGTCATCTGA) | 0
73 | TAGCCTACTTGGGTTCTAACCTGTTGCGG (site TAGCCTACTAC) | 0.0228
74 | TAGCCTACTTGGGTTCTAACCTGTTGCGG (site TAGCCTACTCC) | 1.41
75 | TAGCCTACTTGGGTTCTAACCTGTTGCGG (site TAGCCTACTGC) | 0.0519
76 | TAGCCTACTTGGGTTCTAACCTGTTGCGG (site TAGCCTACTTC) | 0.00783
77 | TAGCCTGCTTGGGTTCTAACCTGTTGCCT (site TAGACTGCTAG) | 0.0305

Source: the supplement of paper PMC11208160
